The values below come from US20250228821A1 (priority 2022, published 2025).

The conditions of data set [1]: single dose 32 mg ruboxistaurin, healthy subjects (FIG. 5); cited from earlier work.
Data set [2] has as its system protein kinase C. The settings on record: cited from earlier work.
For data set [3] the following is noted: human, microsomes, 1 μM.
For data set [4] the following is noted: in vivo; cited from earlier work.
Data set [5] in a line: Blood/brain barrier penetration, pharmacokinetic study in rats. Particulars: rat, 1 mg/kg intravenously. From the text:
Blood samples were collected from 3 animals at 0.25, 1-, and 4-hours post-dose. Brain samples were collected from 9 other rats, 3 each at 0.25, 1-, and 4-hours post-dose. Brain samples were weighted and homogenized with phosphate buffered saline.

For data set [6], the system named is rats treated with dextroamphetamine. The experiment in a line: Ultrasonic vocalizations in rats induced by dextroamphetamine. Particulars: rats, 10, 30, 100 mg/kg IP 60 minutes before D-amphetamine 2.5 mg/kg IP (FIG. 9). It is filed as in vivo, male Wistar rats. As to the method: 98 male Wistar rats were acclimated to the testing facility and handled daily (10 min/day) for 7 days prior to initiating the experiment. […] Rats were placed in white Plexiglas boxes (50×50×50 cm) and videotaped for 10 minutes to acclimate them to the test apparatus. Ultrasonic vocalizations (USV) were recorded with a microphone mounted 45 cm above the open field box to establish baseline, non-treatment related USV responses (50-kHz calls) in each rat. The next day, rats were injected with saline (1 mL/kg body weight, IP) and immediately placed into open field-testing boxes. USVs were recorded for 10 min.

In the case of `CN(C)C[C@@H]1CCn2cc(c3ccccc32)C2=C(C(=O)NC2=O)c2cn(c3ccccc23)CCO1` [Ruboxistaurin], in data set [1], the “half-life (t½)” value is 5.25 h. Also, the “potency of protein kinase C inhibition, ruboxistaurin vs. N-desmethyl ruboxistaurin” value in data set [2] is “equipotent”. In data set [3], the “increase of compound levels at 15 minutes by CYP3A4 inhibitor troleandomycin” value stood at 23 fold.
`[Li]` [lithium]: the elimination half-life result in data set [4] was “about 18 hours”.
Turning to “(12E,32E,7S)-7-((methylamino)methyl)-22,25-dihydro-11H,21H,31H-6-oxa-1,3(3,1)-diindola-2(3,4)-pyrrolacyclononaphane-22,25-dione hydrochloride [N-desmethyl ruboxistaurin]”, the “Mean brain” value in data set [5] (0.25 hr) was 21.0 ng/g; in data set [5] (1 hr), 19.5 ng/g; in data set [5] (4 hr), 13.3 ng/g. The “Mean plasma” value is reported as 73.3 ng/mL in data set [5] (0.25 hr), 43.5 ng/mL in data set [5] (1 hr) and 11.8 ng/mL in data set [5] (4 hr). The “half-life (t½)” value in data set [1] was 23.9 h. Also, the “effect on ultrasonic appetitive vocalizations (50-kHz calls)” value in data set [6] is on record as “able to reduce ultrasonic appetitive vocalizations”.
